Assay results as given in patent publication US20210393678A1, “PERSONALIZED FOOD PRODUCTS FOR ENSURING ADEQUATE IRON INTAKE” (MY-OR D[…]., priority 2018, published 2021).

Tests used:
[1] = clinical studies; cited from earlier work
[2] = Noninvasive total blood hemoglobin in immoderate iron deficient subjects before and after 2 weeks of iron chelate; format: in vivo, human; conditions: immoderate iron deficient subjects 2-7 years of age, baseline average 10.03 g/dL, 1 mL (15 mg) daily, Masimo rainbow SET SpHb
Method: To examine this, the inventors have recruited a population (2-7 years of age) of immoderate iron deficient subjects having an average hemoglobin level of 10.03 g/dL. Total blood hemoglobin levels were measured noninvasively at baseline (time 0) and following treatment (after 2 weeks) from the index finger of subjects using Masimo rainbow SET SpHb technology. Subjects were instructed to take 1 mL of iron bis-glycinate chelate (15 mg) daily.

SMILES	hemoglobin and ferritin indices compared with ferrous sulfate or ferrous ascorbate [1]	average total blood hemoglobin level following treatment ([2]; after two weeks)	increase of total blood hemoglobin level, on average ([2]; two weeks, index finger)
NCC(=O)[O-].NCC(=O)[O-].[Fe+2] [Ferrochel, ferrous bis glycinate]	improved hemoglobin and ferritin indices at lower dosages than ferrous sulfate or ferrous ascorbate		
NCC(=O)[O-].NCC(=O)[O-].[Fe+2] [iron bis-glycinate chelate]		11.13 g/dL	11%
